Laboratory results published in patent publication US20240307345A1, “R-MDMA and S-MDMA TO ASSIST PSYCHOTHERAPY” (Universitatsspital Basel, priority 2022, published 2024).

Tests used:
rhesus monkeys = conditions: cited from earlier work
healthy subjects = assay: Endocrine effects (plasma prolactin and cortisol); format: in vivo, human
Description: Study design: The present study compares the acute subjective, physiological and endocrine effects of S-MDMA (125 mg), R-MDMA (125 and 250 mg), MDMA (125 mg) using a placebo-controlled double-blind 5-period cross-over design in 24 healthy subjects. Conditions are 1.) R-MDMA 125 mg, 2). R-MDMA 250 mg, 3) S-MDMA 125 mg, 4) MDMA 125 mg, 5) placebo. Treatment order is counterbalanced. Washout periods between substance administrations are at least 10 days. Study days include a 10-hour study session with a subsequent single measurement (short visit) the next morning (24 hours after drug administration).
Endocrine effects: Cortisol and prolactin: Cortisol and prolactin are determined as biological markers of serotonergic activity (Seifritz et al., 1996). Plasma concentrations are determined by routine immune assays. Oxytocin and vasopressin: MDMA increase circulating oxytocin (Hysek et al., 2014a) and vasopressin or its precursor copeptin (Simmler et al., 2011). These neurohormones are thought to mediate neurocognitive and adverse effects of MDMA and the role of R-versus S-MDMA remains to be explored. Oxytocin and vasopressin plasma levels are measured before and after substance administration. Concentrations are determined using immunoassays.

monkeys = conditions: cited from earlier work

Structure (SMILES) | potency to maintain self-administration (rhesus monkeys) | prolactin release (healthy subjects; 125 mg S-MDMA compared to (±)-MDMA and 125 mg R-MDMA) | cortisol release (healthy subjects; 125 mg S-MDMA compared to (±)-MDMA and both doses of R-MDMA) | peak effects on prosocial behaviors (monkeys)
CN[C@@H](C)Cc1ccc2c(c1)OCO2 [S-MDMA, S(+)-MDMA] | more potent than R-MDMA | increased more | increased cortisol release more | 
CN[C@H](C)Cc1ccc2c(c1)OCO2 [R-MDMA, R(−)-MDMA] |  |  |  | greater peak effects than S-MDMA
